Source: PMC6245281, “Cytotoxic Steroidal Saponins from the Flowers of Allium leucanthum” (Molecules, 2008)

Experiments:
Type in all cases: cell-based
[1] = test system: lung carcinoma (A549) cell line; assay: Cytotoxicity assay (resazurin reduction test), A549; details: Homo sapiens, A549 cells, 48 h incubation, read-out: IC50 (μM ± SD) A549
Protocol: (§1) Lung carcinoma (A549), colon adenocarcinoma (DLD-1) and normal skin fibroblast (WS1) human cell lines were purchased from the American Type Culture Collection (ATCC). All cell lines were cultured in minimum essential medium containing Earle’s salts and L-glutamine (Mediatech Cellgro, VA), to which 10% fetal bovine serum (Hyclone), vitamins (1X), penicillin (100 I.U./mL), streptomycin (100 μg/ml), essential amino acids (1X) and sodium pyruvate (1X) (Mediatech Cellgro, VA) were added. Cells were kept at 37°C in a humidified environment containing 5% CO2.
(§2) Exponentially growing cells were plated at a density of 5 × 10^3 cells per well in 96-well microplates (Costar, Corning inc.) in 100 µl of culture medium and were allowed to adhere for 16 hours before treatment. Then, 100 µl of increasing concentrations of extract or pure compounds dissolved in culture medium and DMSO (Sigma-Aldrich) were added. The final concentration of solvent in the culture medium was maintained at 0.25% (v/v) to avoid solvent toxicity. Cells were incubated for 48 h in the absence or in the presence of extract. Cytotoxicity was assessed using the resazurin reduction test as described by O’Brien) Fluorescence was measured on an automated 96-well Fluoroskan Ascent Fl plate reader (Labsystems) using an excitation wavelength of 530 nm and an emission wavelength of 590 nm. Cytotoxicity was expressed as the concentration of extract or compound inhibiting cell growth by 50% (IC50).

[2] = test system: colon adenocarcinoma (DLD-1) cell line; assay: Cytotoxicity assay (resazurin reduction test), DLD-1; details: Homo sapiens, DLD-1 cells, 48 h incubation, read-out: IC50 (μM ± SD) DLD-1
Protocol: as §1, §2

[3] = test system: normal skin fibroblast (WS1) cell line; assay: Cytotoxicity assay (resazurin reduction test), WS1; details: Homo sapiens, WS1 healthy cells, 48 h incubation, read-out: IC50 (μM ± SD) WS1
Protocol: as §1, §2

Work on O=c1[nH]cc(F)c(=O)[nH]1 [5-fluorouracil, reference compound] yielded an IC50 [1] of 48 ± 18 µM, an IC50 [2] of 11 ± 2 µM and an IC50 [3] of 20 ± 2 µM.

In the case of CC1CCC2(OC1)OC1CC3C4CC(O)C5CC(OC6OC(CO)C(OC7OC(CO)C(O)C(OC8OCC(O)C(O)C8O)C7OC7OC(CO)C(O)C(O)C7O)C(O)C6O)C(O)CC5(C)C4CCC3(C)C1C2C (centres unmarked) [Aginoside (3), aginoside], the IC50 [1] is reported as 5.8 ± 0.9 µM, the IC50 [2] is reported as 7.9 ± 0.5 µM and the IC50 [3] is reported as 3.6 ± 0.2 µM.

C[C@@H]1CC[C@@]2(OC1)O[C@H]1C[C@H]3[C@@H]4C[C@@H](O)[C@H]5C[C@@H](O[C@@H]6O[C@H](CO)[C@H](O[C@@H]7O[C@H](CO)[C@@H](O)[C@H](O[C@@H]8OC[C@@H](O)[C@H](O)[C@H]8O)[C@H]7O[C@@H]7O[C@H](CO)[C@@H](O)[C@H](O)[C@H]7O)[C@H](O)[C@H]6O)CC[C@]5(C)[C@H]4CC[C@]3(C)[C@H]1[C@@H]2C [Compound 4, (25R)-5α-spirostane-3β,6β-diol 3-O-β-D-glucopyranosyl-(1→2)-[β-D-xylopyranosyl-(1→3)]-β-D-glucopyranosyl-(1→4)-β-D-galactopyranoside] was tested, and the IC50 [1] was 9 ± 1 µM, the IC50 [2] was 13 ± 1 µM and the IC50 [3] was 3.1 ± 0.1 µM.

C[C@@H]1CC[C@@]2(OC1)O[C@H]1C[C@H]3[C@@H]4C[C@@H](O)[C@H]5C[C@@H](O[C@@H]6O[C@H](CO)[C@H](O[C@@H]7O[C@H](CO)[C@@H](O)[C@H](O)[C@H]7O[C@@H]7O[C@H](CO)[C@@H](O)[C@H](O)[C@H]7O)[C@H](O)[C@H]6O)[C@H](O)C[C@]5(C)[C@H]4CC[C@]3(C)[C@H]1[C@@H]2C [Compound 6, (25R)-5α-spirostane-2α,3β,6β-triol 3-O-β-D-glucopyranosyl-(1→2)-β-D-glucopyranosyl-(1→4)-β-D-galactopyranoside] showed an IC50 [1] of 22 ± 2 µM, an IC50 [2] of 22 ± 2 µM and an IC50 [3] of 14.5 ± 0.5 µM.

Work on C[C@@H]1CC[C@@]2(OC1)O[C@H]1C[C@H]3[C@@H]4C[C@@H](O)[C@H]5C[C@@H](O[C@@H]6O[C@H](CO)[C@H](O[C@@H]7O[C@H](CO)[C@@H](O)[C@H](O[C@@H]8O[C@H](CO)[C@@H](O)[C@H](O)[C@H]8O)[C@H]7O[C@@H]7O[C@H](CO)[C@@H](O)[C@H](O[C@@H]8O[C@H](CO)[C@@H](O)[C@H](O)[C@H]8O)[C@H]7O)[C@H](O)[C@H]6O)CC[C@]5(C)[C@H]4CC[C@]3(C)[C@H]1[C@@H]2C [Compound 7, (25R)-5α-spirostane-3β,6β-diol 3-O-β-D-glucopyranosyl-(1→3)-β-D-glucopyranosyl-(1→2)-[β-D-glucopyranosyl-(1→3)]-β-D-glucopyranosyl-(1→4)-β-D-galactopyranoside] yielded an IC50 [1] of 7.8 ± 0.4 µM, an IC50 [2] of 8.9 ± 0.2 µM and an IC50 [3] of 7.7 ± 0.2 µM.

With CC1CCC2(OC1)OC1CC3C4CC(O)C5CC(OC6OC(CO)C(OC7OC(CO)C(O)C(OC8OC(CO)C(O)C(O)C8O)C7OC7OC(CO)C(O)C(O)C7O)C(O)C6O)CCC5(C)C4CCC3(C)C1C2C (centres unmarked) [Eruboside B (2), eruboside B] the IC50 [1] was 5.3 ± 0.5 µM, the IC50 [2] was 8.2 ± 0.4 µM and the IC50 [3] was 3.6 ± 0.2 µM.

COc1cc([C@@H]2c3cc4c(cc3[C@@H](O[C@@H]3O[C@@H]5CO[C@@H](C)O[C@H]5[C@H](O)[C@H]3O)[C@H]3COC(=O)[C@H]23)OCO4)cc(OC)c1O [Etoposide, reference compound] gave an IC50 [1] of 1.1 ± 0.1 µM and an IC50 [2] of 4.8 ± 0.8 µM.

C[C@@H]1CC[C@@]2(OC1)O[C@H]1C[C@H]3[C@@H]4C[C@@H](O)[C@H]5C[C@@H](O[C@@H]6O[C@H](CO)[C@H](O[C@@H]7O[C@H](CO)[C@@H](O)[C@H](O[C@@H]8O[C@H](CO)[C@@H](O)[C@H](O)[C@H]8O)[C@H]7O[C@@H]7O[C@H](CO)[C@@H](O)[C@H](O[C@@H]8O[C@H](CO)[C@@H](O)[C@H](O)[C@H]8O)[C@H]7O)[C@H](O)[C@H]6O)[C@H](O)C[C@]5(C)[C@H]4CC[C@]3(C)[C@H]1[C@@H]2C [Leucospiroside A (5), (25R)-5α-spirostane-2α,3β,6β-triol 3-O-β-glucopyranosyl-(1→3)-β-glucopyranosyl-(1→2)-[β-glucopyranosyl-(1→3)]-β-glucopyranosyl-(1→4)-β-galactopyranoside] was tested, and the IC50 [1] was 5 ± 0.1 µM, the IC50 [2] was 7.2 ± 0.1 µM and the IC50 [3] was 4.55 ± 0.07 µM.

For CC1CCC2(OC1)OC1CC3C4CC(O)C5CC(OC6OC(CO)C(OC7OC(CO)C(O)C(OC8OC(CO)C(O)C(O)C8O)C7OC7OC(CO)C(O)C(O)C7O)C(O)C6O)C(O)CC5(C)C4CCC3(C)C1C2C (centres unmarked) [Yayoisaponin C (1), yayoisaponin C], the IC50 [1] was 3.7 ± 0.7 µM, the IC50 [2] was 5.6 ± 0.2 µM and the IC50 [3] was 3 ± 0.2 µM.
